19 molecules from patent US20160168126A1, “CHEMICAL COMPOUNDS” (SYNGENTA LIMITED, priority 2013, published 2016) can be followed below.

SMILES strings stand for the structures.

This assay relates to a variety of test species. Kind of assay: Post-emergence herbicidal activity (glasshouse, sprayed 8 days after sowing, evaluated after 13 days). In kind it is in vivo. To be noted: scale 0-5. Here is the method:
Seeds of a variety of test species were sown in standard soil in pots. After 8 days cultivation (post-emergence) under controlled conditions in a glasshouse (at 24/16° C., day/night; 14 hours light; 65% humidity), the plants were sprayed with an aqueous spray solution derived from the formulation of the technical active ingredient in acetone/water (50:50) solution containing 0.5% Tween 20 (polyoxyethelyene sorbitan monolaurate, CAS RN 9005-64-5). The test plants were then grown in a glasshouse under controlled conditions (at 24/16° C., day/night; 14 hours light; 65% humidity) and watered twice daily. After 13 days, the test was evaluated (5=total damage to plant; 0=no damage to plant).

For the molecule `CC1=C(Cl)C(O)N(c2cc(C(F)(F)F)n(C)n2)C1=O` (stereo not drawn) [Compound B3], for the setting “1000 g/ha”, the “Post-emergence herbicidal damage score, ABUTH (Abutilon theophrasti)” value came out at 5; the “Post-emergence herbicidal damage score, ALOMY (Alopecurus myosuroides)” value amounted to 5; the “Post-emergence herbicidal damage score, AMARE (Amaranthus retroflexus)” value amounted to 5; the “Post-emergence herbicidal damage score, ECHCG (Echinochloa crus-galli)” value was 5. Further, where the note is “1000 g/ha”, the “Post-emergence herbicidal damage score, SETFA (Setaria faberi)” value is 4 and the “Post-emergence herbicidal damage score, ZEAMX (Zea mays)” value came out at 1.

Take `CC1=C(Cl)C(O)N(c2cc(C(F)(F)C(F)(F)F)n(C)n2)C1=O` (stereo not drawn) [Compound B4]: under “1000 g/ha”, the “Post-emergence herbicidal damage score, ABUTH (Abutilon theophrasti)” value is 5; the “Post-emergence herbicidal damage score, ALOMY (Alopecurus myosuroides)” value is 4; the “Post-emergence herbicidal damage score, AMARE (Amaranthus retroflexus)” value is listed as 5; the “Post-emergence herbicidal damage score, ECHCG (Echinochloa crus-galli)” value is 4. Further, for the setting “1000 g/ha”, the “Post-emergence herbicidal damage score, SETFA (Setaria faberi)” value came to 3 and the “Post-emergence herbicidal damage score, ZEAMX (Zea mays)” value came to 0.

On to `CC1=C(Cl)C(O)N(c2cc(C(C)C)n(C)n2)C1=O` (stereo not drawn) [Compound B5], for which, for the setting “250 g/ha”, the “Post-emergence herbicidal damage score, ABUTH (Abutilon theophrasti)” value is 5; the “Post-emergence herbicidal damage score, ALOMY (Alopecurus myosuroides)” value is recorded as 4; the “Post-emergence herbicidal damage score, AMARE (Amaranthus retroflexus)” value is 5; the “Post-emergence herbicidal damage score, ECHCG (Echinochloa crus-galli)” value was found to be 5. Moreover, where the note is “250 g/ha”, the “Post-emergence herbicidal damage score, SETFA (Setaria faberi)” value is reported as 4 and the “Post-emergence herbicidal damage score, ZEAMX (Zea mays)” value was 3.

Turning to `C=CCC(C)(C)c1cc(N2C(=O)C(C)=C(Cl)C2O)nn1C` (stereo not drawn) [Compound B6, 3-chloro-1-[5-(1,1-dimethylbut-3-enyl)-1-methyl-pyrazol-3-yl]-2-hydroxy-4-methyl-2H-pyrrol-5-one], under “1000 g/ha”, the “Post-emergence herbicidal damage score, ABUTH (Abutilon theophrasti)” value turned out to be 5; the “Post-emergence herbicidal damage score, ALOMY (Alopecurus myosuroides)” value came out at 5; the “Post-emergence herbicidal damage score, AMARE (Amaranthus retroflexus)” value is recorded as 5; the “Post-emergence herbicidal damage score, ECHCG (Echinochloa crus-galli)” value was 5. Where the note is “1000 g/ha”, the “Post-emergence herbicidal damage score, SETFA (Setaria faberi)” value was 5 and the “Post-emergence herbicidal damage score, ZEAMX (Zea mays)” value was found to be 2.

On to `CC(C)=Cc1cc(N2C(=O)C(C)=C(Cl)C2O)nn1C` (stereo not drawn) [Compound B7, 3-chloro-2-hydroxy-4-methyl-1-[1-methyl-5-(2-methylprop-1-enyl)pyrazol-3-yl]-2H-pyrrol-5-one], for which, for the setting “1000 g/ha”, the “Post-emergence herbicidal damage score, ABUTH (Abutilon theophrasti)” value stood at 4; the “Post-emergence herbicidal damage score, ALOMY (Alopecurus myosuroides)” value was 0; the “Post-emergence herbicidal damage score, AMARE (Amaranthus retroflexus)” value is 3; the “Post-emergence herbicidal damage score, ECHCG (Echinochloa crus-galli)” value stood at 1. For the same molecule, under “1000 g/ha”, the “Post-emergence herbicidal damage score, SETFA (Setaria faberi)” value was determined as 5 and the “Post-emergence herbicidal damage score, ZEAMX (Zea mays)” value stood at 2.

For the molecule `CC1=C(Cl)C(O)N(c2cc(I)n(C)n2)C1=O` (stereo not drawn) [Compound B8, 3-chloro-2-hydroxy-1-(5-iodo-1-methyl-pyrazol-3-yl)-4-methyl-2H-pyrrol-5-one], for the setting “1000 g/ha”, the “Post-emergence herbicidal damage score, ABUTH (Abutilon theophrasti)” value stood at 5; the “Post-emergence herbicidal damage score, ALOMY (Alopecurus myosuroides)” value is reported as 3; the “Post-emergence herbicidal damage score, AMARE (Amaranthus retroflexus)” value is 5; the “Post-emergence herbicidal damage score, ECHCG (Echinochloa crus-galli)” value is given as 4. For the same molecule, for the setting “1000 g/ha”, the “Post-emergence herbicidal damage score, SETFA (Setaria faberi)” value came to 5 and the “Post-emergence herbicidal damage score, ZEAMX (Zea mays)” value worked out at 1.

On to `CC1=C(Cl)C(O)N(c2cc(Cl)n(C)n2)C1=O` (stereo not drawn) [Compound B9], for which, where the note is “1000 g/ha”, the “Post-emergence herbicidal damage score, ABUTH (Abutilon theophrasti)” value was 5; the “Post-emergence herbicidal damage score, ALOMY (Alopecurus myosuroides)” value was 4; the “Post-emergence herbicidal damage score, AMARE (Amaranthus retroflexus)” value turned out to be 5; the “Post-emergence herbicidal damage score, ECHCG (Echinochloa crus-galli)” value is on record as 5. For the same molecule, where the note is “1000 g/ha”, the “Post-emergence herbicidal damage score, SETFA (Setaria faberi)” value was 5 and the “Post-emergence herbicidal damage score, ZEAMX (Zea mays)” value came out at 1.

In the case of `CC(C)=CCc1cc(N2C(=O)C(C)=C(Cl)C2O)nn1C` (stereo not drawn) [Compound B10, 3-chloro-2-hydroxy-4-methyl-1-[1-methyl-5-(3-methylbut-2-enyl)pyrazol-3-yl]-2H-pyrrol-5-one], for the setting “1000 g/ha”, the “Post-emergence herbicidal damage score, ABUTH (Abutilon theophrasti)” value was 2; the “Post-emergence herbicidal damage score, ALOMY (Alopecurus myosuroides)” value is 0; the “Post-emergence herbicidal damage score, AMARE (Amaranthus retroflexus)” value is on record as 0; the “Post-emergence herbicidal damage score, ECHCG (Echinochloa crus-galli)” value turned out to be 2. Moreover, under “1000 g/ha”, the “Post-emergence herbicidal damage score, SETFA (Setaria faberi)” value stood at 3 and the “Post-emergence herbicidal damage score, ZEAMX (Zea mays)” value came to 0.

Consider `CC1=C(Cl)C(O)N(c2cc(/C=C/C(C)(C)C)n(C)n2)C1=O` (stereo not drawn) [Compound B11], for which, under “1000 g/ha”, the “Post-emergence herbicidal damage score, ABUTH (Abutilon theophrasti)” value is reported as 0; the “Post-emergence herbicidal damage score, ALOMY (Alopecurus myosuroides)” value is 0; the “Post-emergence herbicidal damage score, AMARE (Amaranthus retroflexus)” value was 0; the “Post-emergence herbicidal damage score, ECHCG (Echinochloa crus-galli)” value is recorded as 0. In addition, for the setting “1000 g/ha”, the “Post-emergence herbicidal damage score, SETFA (Setaria faberi)” value came out at 0 and the “Post-emergence herbicidal damage score, ZEAMX (Zea mays)” value is recorded as 0.

Take `CC1=C(Cl)C(O)N(c2cc(CCC(C)C)n(C)n2)C1=O` (stereo not drawn) [Compound B12]: where the note is “1000 g/ha”, the “Post-emergence herbicidal damage score, ABUTH (Abutilon theophrasti)” value was 1; the “Post-emergence herbicidal damage score, ALOMY (Alopecurus myosuroides)” value worked out at 0; the “Post-emergence herbicidal damage score, AMARE (Amaranthus retroflexus)” value is recorded as 0; the “Post-emergence herbicidal damage score, ECHCG (Echinochloa crus-galli)” value was 0. For the same molecule, under “1000 g/ha”, the “Post-emergence herbicidal damage score, SETFA (Setaria faberi)” value was 0 and the “Post-emergence herbicidal damage score, ZEAMX (Zea mays)” value was 0.

As for `CSc1cc(N2C(=O)C(C)=C(Cl)C2O)nn1C` (stereo not drawn) [Compound B17], where the note is “1000 g/ha”, the “Post-emergence herbicidal damage score, ABUTH (Abutilon theophrasti)” value is 4; the “Post-emergence herbicidal damage score, ALOMY (Alopecurus myosuroides)” value worked out at 2; the “Post-emergence herbicidal damage score, AMARE (Amaranthus retroflexus)” value is listed as 3; the “Post-emergence herbicidal damage score, ECHCG (Echinochloa crus-galli)” value turned out to be 4. Moreover, under “1000 g/ha”, the “Post-emergence herbicidal damage score, SETFA (Setaria faberi)” value is listed as 5 and the “Post-emergence herbicidal damage score, ZEAMX (Zea mays)” value is 1.

Take `CC1=C(Cl)C(O)N(c2nn(C)c3c2CCC3(C)C)C1=O` (stereo not drawn) [Compound B18]: for the setting “1000 g/ha”, the “Post-emergence herbicidal damage score, ABUTH (Abutilon theophrasti)” value was found to be 5; the “Post-emergence herbicidal damage score, ALOMY (Alopecurus myosuroides)” value amounted to 4; the “Post-emergence herbicidal damage score, AMARE (Amaranthus retroflexus)” value is given as 5; the “Post-emergence herbicidal damage score, ECHCG (Echinochloa crus-galli)” value is given as 5. Where the note is “1000 g/ha”, the “Post-emergence herbicidal damage score, SETFA (Setaria faberi)” value stood at 5 and the “Post-emergence herbicidal damage score, ZEAMX (Zea mays)” value came out at 4.

Consider `CC1=C(Cl)C(O)N(c2cc(S(C)(=O)=O)n(C)n2)C1=O` (stereo not drawn) [Compound B20], for which, where the note is “1000 g/ha”, the “Post-emergence herbicidal damage score, ABUTH (Abutilon theophrasti)” value turned out to be 5; the “Post-emergence herbicidal damage score, ALOMY (Alopecurus myosuroides)” value stood at 3; the “Post-emergence herbicidal damage score, AMARE (Amaranthus retroflexus)” value was determined as 5; the “Post-emergence herbicidal damage score, ECHCG (Echinochloa crus-galli)” value came to 4. Moreover, for the setting “1000 g/ha”, the “Post-emergence herbicidal damage score, SETFA (Setaria faberi)” value was 5 and the “Post-emergence herbicidal damage score, ZEAMX (Zea mays)” value amounted to 0.

For `CC1=C(Cl)C(O)N(c2cc(C(C)(C)C#N)n(C)n2)C1=O` (stereo not drawn) [Compound B23], under “1000 g/ha”, the “Post-emergence herbicidal damage score, ABUTH (Abutilon theophrasti)” value was 4; the “Post-emergence herbicidal damage score, ALOMY (Alopecurus myosuroides)” value worked out at 3; the “Post-emergence herbicidal damage score, AMARE (Amaranthus retroflexus)” value stood at 5; the “Post-emergence herbicidal damage score, ECHCG (Echinochloa crus-galli)” value was found to be 5. Also, under “1000 g/ha”, the “Post-emergence herbicidal damage score, SETFA (Setaria faberi)” value stood at 4 and the “Post-emergence herbicidal damage score, ZEAMX (Zea mays)” value is listed as 1.

Take `C/C=C\c1cc(N2C(=O)C(C)=C(Cl)C2O)nn1C` (stereo not drawn) [Compound B24]: where the note is “1000 g/ha”, the “Post-emergence herbicidal damage score, ABUTH (Abutilon theophrasti)” value is 5; the “Post-emergence herbicidal damage score, ALOMY (Alopecurus myosuroides)” value was 3; the “Post-emergence herbicidal damage score, AMARE (Amaranthus retroflexus)” value is 5; the “Post-emergence herbicidal damage score, ECHCG (Echinochloa crus-galli)” value is 4. In addition, for the setting “1000 g/ha”, the “Post-emergence herbicidal damage score, SETFA (Setaria faberi)” value is given as 5 and the “Post-emergence herbicidal damage score, ZEAMX (Zea mays)” value is listed as 1.

For the molecule `C=C(C)c1cc(N2C(=O)C(C)=C(Cl)C2O)nn1C` (stereo not drawn) [Compound B25], under “1000 g/ha”, the “Post-emergence herbicidal damage score, ABUTH (Abutilon theophrasti)” value amounted to 5; the “Post-emergence herbicidal damage score, ALOMY (Alopecurus myosuroides)” value was 4; the “Post-emergence herbicidal damage score, AMARE (Amaranthus retroflexus)” value worked out at 5; the “Post-emergence herbicidal damage score, ECHCG (Echinochloa crus-galli)” value was 5. Also, under “1000 g/ha”, the “Post-emergence herbicidal damage score, SETFA (Setaria faberi)” value came out at 5 and the “Post-emergence herbicidal damage score, ZEAMX (Zea mays)” value is on record as 2.

For `CC1=C(Cl)C(O)N(c2cc([S+](C)[O-])n(C)n2)C1=O` (stereo not drawn) [Compound B26], where the note is “1000 g/ha”, the “Post-emergence herbicidal damage score, ABUTH (Abutilon theophrasti)” value was determined as 5; the “Post-emergence herbicidal damage score, ALOMY (Alopecurus myosuroides)” value is given as 4; the “Post-emergence herbicidal damage score, AMARE (Amaranthus retroflexus)” value was determined as 5; the “Post-emergence herbicidal damage score, ECHCG (Echinochloa crus-galli)” value was found to be 5. For the same molecule, for the setting “1000 g/ha”, the “Post-emergence herbicidal damage score, SETFA (Setaria faberi)” value was 5 and the “Post-emergence herbicidal damage score, ZEAMX (Zea mays)” value was 4.

For `CC(C)=C(C)c1cc(N2C(=O)C(C)=C(Cl)C2O)nn1C` (stereo not drawn) [Compound B27], where the note is “1000 g/ha”, the “Post-emergence herbicidal damage score, ABUTH (Abutilon theophrasti)” value stood at 4; the “Post-emergence herbicidal damage score, ALOMY (Alopecurus myosuroides)” value worked out at 1; the “Post-emergence herbicidal damage score, AMARE (Amaranthus retroflexus)” value worked out at 1; the “Post-emergence herbicidal damage score, ECHCG (Echinochloa crus-galli)” value is on record as 0. For the setting “1000 g/ha”, the “Post-emergence herbicidal damage score, SETFA (Setaria faberi)” value is recorded as 3 and the “Post-emergence herbicidal damage score, ZEAMX (Zea mays)” value stood at 0.

On to `CC1=C(Cl)C(O)N(c2nn(C)c3c2CCCCC3(C)C)C1=O` (stereo not drawn) [Compound B28], for which, where the note is “1000 g/ha”, the “Post-emergence herbicidal damage score, ABUTH (Abutilon theophrasti)” value is on record as 4; the “Post-emergence herbicidal damage score, ALOMY (Alopecurus myosuroides)” value is on record as 2; the “Post-emergence herbicidal damage score, AMARE (Amaranthus retroflexus)” value came out at 4; the “Post-emergence herbicidal damage score, ECHCG (Echinochloa crus-galli)” value was 3. Under “1000 g/ha”, the “Post-emergence herbicidal damage score, SETFA (Setaria faberi)” value came out at 3 and the “Post-emergence herbicidal damage score, ZEAMX (Zea mays)” value came to 1.
